Assay results from ChEMBL document CHEMBL4184186, “Targeting protein-protein interaction between MLL1 and reciprocal proteins for leukemia therapy” (Bioorg Med Chem, 2018).
Each block holds one compound with its values, some of them ahead of it.

Columns and labels:
Menin [1] = molecular target: T1, Menin (Homo sapiens, UniProt O00255); experiment: Displacement of FITC-MBM1 from full length human menin measured after 1 hr by fluorescence polarization assay
T1 sequence (O00255 whole entry): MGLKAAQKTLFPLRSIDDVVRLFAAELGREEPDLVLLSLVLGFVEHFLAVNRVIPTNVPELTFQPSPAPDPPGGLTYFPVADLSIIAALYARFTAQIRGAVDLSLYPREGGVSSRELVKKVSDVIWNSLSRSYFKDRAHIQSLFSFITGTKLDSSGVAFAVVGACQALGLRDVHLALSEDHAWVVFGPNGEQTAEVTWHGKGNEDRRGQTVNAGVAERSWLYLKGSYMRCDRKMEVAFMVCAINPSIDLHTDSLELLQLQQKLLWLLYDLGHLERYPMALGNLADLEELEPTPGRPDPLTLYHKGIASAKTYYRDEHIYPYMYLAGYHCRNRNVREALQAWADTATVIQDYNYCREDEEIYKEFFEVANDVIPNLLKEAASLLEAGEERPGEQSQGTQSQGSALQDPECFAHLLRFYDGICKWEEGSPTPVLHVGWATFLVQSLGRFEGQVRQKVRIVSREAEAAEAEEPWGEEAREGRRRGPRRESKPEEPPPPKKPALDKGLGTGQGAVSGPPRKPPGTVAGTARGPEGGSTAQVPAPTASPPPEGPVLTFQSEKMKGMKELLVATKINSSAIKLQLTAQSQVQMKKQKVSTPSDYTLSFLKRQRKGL

Menin [2] = molecular target: T1, Menin; experiment: Binding affinity to menin (unknown origin) by isothermal titration calorimetry
[3] = molecular target: Histone-lysine N-methyltransferase 2A (Homo sapiens, UniProt Q03164); experiment: Inhibition of MLL1 binding to N-terminal His-tagged […] 23 deletion mutant (24 to 334 residues) (unknown origin) expressed in Escherichia coli Rosetta 2 (DE3) pLysS cells by fluorescence polarization assay
Menin [4] = molecular target: T1, Menin
Description: Displacement of FITC-MBM1 from menin (unknown origin) measured after 1 hr by fluorescence polarization assay

Menin [5] = molecular target: T1, Menin; experiment: Displacement of FITC-MBM1 from full length human menin measured after 2 hrs by fluorescence polarization assay

Chain of Histone-lysine N-methyltransferase 2A (Q03164 1-2718 limits assumed, stated change not applied): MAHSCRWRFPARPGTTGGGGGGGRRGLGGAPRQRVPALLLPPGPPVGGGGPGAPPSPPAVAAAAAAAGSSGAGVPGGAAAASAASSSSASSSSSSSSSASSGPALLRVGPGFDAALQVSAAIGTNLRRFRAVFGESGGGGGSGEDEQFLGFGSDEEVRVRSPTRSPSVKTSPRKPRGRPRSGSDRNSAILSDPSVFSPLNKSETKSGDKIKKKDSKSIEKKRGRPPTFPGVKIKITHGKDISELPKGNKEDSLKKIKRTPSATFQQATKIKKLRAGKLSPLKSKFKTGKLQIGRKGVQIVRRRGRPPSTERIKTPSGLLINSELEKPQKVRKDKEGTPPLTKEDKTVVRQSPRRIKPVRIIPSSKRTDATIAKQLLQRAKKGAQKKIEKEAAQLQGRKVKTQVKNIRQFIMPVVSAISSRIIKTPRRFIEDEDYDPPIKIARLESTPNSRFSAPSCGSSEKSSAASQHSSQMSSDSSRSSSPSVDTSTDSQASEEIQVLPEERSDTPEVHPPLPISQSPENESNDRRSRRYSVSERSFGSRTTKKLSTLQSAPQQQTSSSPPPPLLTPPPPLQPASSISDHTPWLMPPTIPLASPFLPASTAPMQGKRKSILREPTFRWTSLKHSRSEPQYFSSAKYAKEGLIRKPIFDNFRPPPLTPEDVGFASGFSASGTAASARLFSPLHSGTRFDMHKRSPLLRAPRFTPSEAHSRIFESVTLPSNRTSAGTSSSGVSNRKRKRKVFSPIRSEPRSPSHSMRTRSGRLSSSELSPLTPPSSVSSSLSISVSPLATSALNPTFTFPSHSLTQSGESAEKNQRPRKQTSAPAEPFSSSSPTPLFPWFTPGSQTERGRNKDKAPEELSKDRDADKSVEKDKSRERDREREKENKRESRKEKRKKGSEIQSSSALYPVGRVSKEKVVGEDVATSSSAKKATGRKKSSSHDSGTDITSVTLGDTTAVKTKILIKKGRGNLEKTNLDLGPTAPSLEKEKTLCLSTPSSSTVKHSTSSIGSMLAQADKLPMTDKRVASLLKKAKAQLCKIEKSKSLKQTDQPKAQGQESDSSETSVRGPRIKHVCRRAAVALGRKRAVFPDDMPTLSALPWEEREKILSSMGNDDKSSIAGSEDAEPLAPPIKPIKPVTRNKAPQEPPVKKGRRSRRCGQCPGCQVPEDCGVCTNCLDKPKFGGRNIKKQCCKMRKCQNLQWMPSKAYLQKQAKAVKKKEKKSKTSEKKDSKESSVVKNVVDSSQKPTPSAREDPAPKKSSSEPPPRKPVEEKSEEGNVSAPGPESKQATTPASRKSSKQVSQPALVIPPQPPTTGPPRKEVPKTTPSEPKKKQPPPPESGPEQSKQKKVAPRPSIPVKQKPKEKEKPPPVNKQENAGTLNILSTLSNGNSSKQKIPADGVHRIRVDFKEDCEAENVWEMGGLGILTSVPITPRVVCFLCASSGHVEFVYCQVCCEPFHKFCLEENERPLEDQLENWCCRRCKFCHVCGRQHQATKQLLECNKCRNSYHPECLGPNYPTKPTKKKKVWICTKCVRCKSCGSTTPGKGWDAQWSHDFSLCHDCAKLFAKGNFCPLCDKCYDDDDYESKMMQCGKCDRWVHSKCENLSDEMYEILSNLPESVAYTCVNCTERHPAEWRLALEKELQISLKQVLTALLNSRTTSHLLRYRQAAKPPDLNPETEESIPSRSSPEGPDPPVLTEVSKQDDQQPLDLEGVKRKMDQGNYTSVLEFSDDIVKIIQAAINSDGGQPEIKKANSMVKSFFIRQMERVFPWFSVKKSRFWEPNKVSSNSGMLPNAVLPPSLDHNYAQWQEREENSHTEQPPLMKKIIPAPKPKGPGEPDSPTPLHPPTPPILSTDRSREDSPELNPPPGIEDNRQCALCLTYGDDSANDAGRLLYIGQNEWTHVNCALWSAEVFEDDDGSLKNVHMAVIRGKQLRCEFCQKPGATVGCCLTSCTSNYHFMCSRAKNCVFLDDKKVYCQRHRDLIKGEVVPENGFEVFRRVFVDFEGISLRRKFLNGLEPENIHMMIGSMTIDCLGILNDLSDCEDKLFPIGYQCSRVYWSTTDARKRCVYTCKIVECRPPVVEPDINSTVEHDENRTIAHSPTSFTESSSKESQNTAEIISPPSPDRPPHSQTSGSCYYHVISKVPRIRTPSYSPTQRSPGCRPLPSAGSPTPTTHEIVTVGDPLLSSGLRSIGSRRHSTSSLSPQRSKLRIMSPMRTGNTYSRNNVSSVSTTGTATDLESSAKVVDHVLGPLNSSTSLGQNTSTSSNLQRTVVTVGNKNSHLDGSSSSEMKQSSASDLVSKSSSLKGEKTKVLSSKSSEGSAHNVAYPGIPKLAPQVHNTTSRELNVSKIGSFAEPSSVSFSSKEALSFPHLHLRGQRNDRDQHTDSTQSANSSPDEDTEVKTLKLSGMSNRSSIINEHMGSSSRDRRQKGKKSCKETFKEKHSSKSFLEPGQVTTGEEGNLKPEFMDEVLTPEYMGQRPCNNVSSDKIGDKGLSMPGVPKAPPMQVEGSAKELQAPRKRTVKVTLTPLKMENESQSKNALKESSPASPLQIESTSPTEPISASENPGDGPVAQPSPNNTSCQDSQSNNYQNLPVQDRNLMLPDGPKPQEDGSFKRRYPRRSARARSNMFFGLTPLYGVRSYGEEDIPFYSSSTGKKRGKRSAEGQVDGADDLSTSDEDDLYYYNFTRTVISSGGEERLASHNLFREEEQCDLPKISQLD
Chain of Histone-lysine N-methyltransferase 2A (Q03164 2719-3969 limits assumed, stated change not applied): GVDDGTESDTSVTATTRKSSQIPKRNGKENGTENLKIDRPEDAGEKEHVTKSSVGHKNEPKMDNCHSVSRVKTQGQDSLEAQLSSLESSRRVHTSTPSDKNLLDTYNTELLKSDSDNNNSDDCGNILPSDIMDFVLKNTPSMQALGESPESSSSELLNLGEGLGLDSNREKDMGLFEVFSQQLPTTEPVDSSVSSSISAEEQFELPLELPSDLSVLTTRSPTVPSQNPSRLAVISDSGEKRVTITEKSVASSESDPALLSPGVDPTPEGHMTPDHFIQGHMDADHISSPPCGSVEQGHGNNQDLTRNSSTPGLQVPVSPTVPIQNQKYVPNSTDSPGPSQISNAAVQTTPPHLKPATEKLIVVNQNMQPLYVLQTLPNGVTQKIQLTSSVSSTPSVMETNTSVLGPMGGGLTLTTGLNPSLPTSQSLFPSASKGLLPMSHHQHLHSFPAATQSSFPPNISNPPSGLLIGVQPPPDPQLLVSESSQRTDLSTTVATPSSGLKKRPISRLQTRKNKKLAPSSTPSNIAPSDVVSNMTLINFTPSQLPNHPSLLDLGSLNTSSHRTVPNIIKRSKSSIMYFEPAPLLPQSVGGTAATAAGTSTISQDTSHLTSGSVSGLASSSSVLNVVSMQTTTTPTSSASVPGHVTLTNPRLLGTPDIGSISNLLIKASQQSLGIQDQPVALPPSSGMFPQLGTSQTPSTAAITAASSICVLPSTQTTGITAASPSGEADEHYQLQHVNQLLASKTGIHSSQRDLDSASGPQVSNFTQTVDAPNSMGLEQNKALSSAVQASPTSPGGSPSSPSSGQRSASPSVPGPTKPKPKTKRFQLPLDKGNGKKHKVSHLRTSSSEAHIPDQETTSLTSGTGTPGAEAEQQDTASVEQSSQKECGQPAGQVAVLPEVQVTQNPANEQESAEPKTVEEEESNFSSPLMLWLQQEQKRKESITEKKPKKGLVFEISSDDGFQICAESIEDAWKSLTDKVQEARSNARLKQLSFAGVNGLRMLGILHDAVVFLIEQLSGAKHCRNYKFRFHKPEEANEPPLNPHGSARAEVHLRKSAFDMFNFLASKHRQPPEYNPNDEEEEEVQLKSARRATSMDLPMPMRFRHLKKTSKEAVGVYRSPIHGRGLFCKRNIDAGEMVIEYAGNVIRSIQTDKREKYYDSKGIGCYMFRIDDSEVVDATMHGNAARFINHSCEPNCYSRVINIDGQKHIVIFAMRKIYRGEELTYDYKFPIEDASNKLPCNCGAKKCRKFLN

Structure (SMILES): CCC(CC)(NC(=O)C(C)C)C(=O)N[C@@H](CCCNC(=N)N)C(=O)NC1(C(=O)NC(c2ccc(Cl)cc2)c2ccc(Cl)cc2)CCCC1
- IC50 [3]: 4.5 nM
- Ki [3]: < 1 nM

Structure (SMILES): NCC(CCN1CC=C(c2ccc(Cl)cc2)CC1)(c1ccccc1)C1CCCC1 (stereo not drawn)
- IC50 (Menin [5]): 830 nM
- Ki (Menin [5]): 80 nM

Structure (SMILES): CN(C)C(=O)C(CCN1CCC(O)(c2ccc(Cl)cc2)CC1)(c1ccccc1)c1ccccc1 [LOPERAMIDE]
- IC50 (Menin [5]): 69000 nM

Other lines, results leading:

- IC50 (Menin [1]): 14.7 nM
- Kd (Menin [2]): 9.3 nM
Structure (SMILES): Cc1c(CN2CCC(Nc3ncnc4sc(CC(F)(F)F)cc34)CC2)ccc2c1cc(C#N)n2Cc1cn[nH]c1

- IC50 (Menin [4]): 1 nM
Structure (SMILES): O=c1cccc2n1[C@@H]1C[C@H](C2)CN(CC(O)CCCc2ccccc2)C1 (stereo partly drawn)
